Values quoted from earlier work as cited in patent publication US20230027192A1, “METHODS OF USING SOLUBLE SOLID DISPERSIONS OF RIFAXIMIN” (United States Government as Represented by the Department …, priority 2019, published 2023).

Columns and labels:
[1] = system: secondary/primary bile acid ratio; conditions: patients with compensated cirrhosis
[2] = system: hepatic encephalopathy (HE); conditions: in cirrhosis

Compound: CO[C@H]1/C=C/O[C@@]2(C)Oc3c(C)c(O)c4c(O)c(c5c(nc6cc(C)ccn65)c4c3C2=O)NC(=O)/C(C)=C\C=C\[C@H](C)[C@H](O)[C@@H](C)[C@@H](O)[C@@H](C)[C@H](OC(C)=O)[C@@H]1C [rifaximin]
- secondary/primary bile acid ratio [1]: reduction
- risk of HE recurrence and HE-related hospitalizations [2]: reduces the risk
